Data from article PMC8505397, “Development of peptides targeting receptor binding site of the envelope glycoprotein to contain the West Nile virus infection” (Scientific Reports, 2021).

Columns and labels:
Hemolysis assay = assay type: cell-based; conditions: sheep, red blood cells (washed, in saline); 1 μM and 6 μM; 1 h and 5 h; threshold for hemolytic activity > 10%; read-out: hemolysis, maximum release of the hemoglobin
Procedure: Hemolysis assay was performed according to the method of Bender et al.[94]. Details are presented in Supplementary Method S16. […]
Assessment of the hemolytic activity. Sheep whole blood (10 mL) was centrifuged at 2000 rpm for 5 min at room temperature. The red blood cells (RBCs) were carefully separated from […]
plasma and washed 3 times with saline (0.9% NaCl). The washed RBCs were resuspended in saline (50 mL). Peptides at two different concentrations (1 µM and 6 µM) resuspended in saline solution (100 µL) were added to the RBCs suspension (100 µL). As a positive control (100% lysis), 0.1% Triton X-100 was used. Negative control (0% lysis) was prepared by adding only saline (100 µL) to the RBCs suspension (100 µL). All samples were incubated at 37°C for 1 h and 5 h. The mixtures were gently shaked every 30 min. After incubation, the RBCs were separated by centrifugation (2000 rpm for 5 min) and the supernatant (100 µL) was incubated for 30 min at ambient conditions to oxidize the hemoglobin. The absorbance of oxyhemoglobin present in the supernatant was assessed by absorption at 414 nm. The assay was performed in triplicates. The hemolysis (%) of the RBCs was calculated using the following formula: Hemolysis (%) = [(Asample - xĀ negative control) / xĀ positive control] × 100. […]
(TCID50/ml) exactly as described before1. […]

[1] = system: adhesion of rDIII on cultured hBMECs; assay: Blocking of adhesion of rDIII on cultured hBMECs by peptides (immunocytochemistry); assay type: cell-based, human; conditions: 5 µg (0.39 nM) rDIII pre-blocked with tenfold molar excess (3.9 nM) of peptide
Procedure: Cells were cultured as described in Supplementary Method S1. First, concentration-dependent immunocytochemistry was performed to reveal the minimum concentration of rDIII required to detect its adhesion to the endothelial cells. Details are presented in Supplementary Method S14.
After that, the ability of peptides to block the adhesion of rDIII to the culture of hBMECs was judged. A tenfold molar excess of each peptide was incubated with rDIII for 1 h at room temperature. Pre-incubated rDIII was subsequently used in the assay. Details are described in the Supplementary Method S14. […]
Blocking of adhesion of rDIII on cultured hBMECs by peptides (immunocytochemistry). First, different concentrations of rDIII were tested to get the minimum concentration of rDIII required to detect the adhesion of the domain to the cultured hBMECs. In short, hBMECs were cultured on collagen type I (Sigma) coated coverslips in a 12-well culture plate in EBM-2 medium (Lonza) as was described in Supplementary Method S1 until 70% confluency. Cells were washed 2 times with PBS (pH 7.4) and fixed with acetone/ethanol (8:2 [v/v]) for 10 min at 4°C. Cells were washed 3 times with PBS (pH 7.4) and incubated with rDIII at different concentrations (20 µg, 15 µg, 10 µg, 5 µg, 2.5 µg, 2 µg, and 1 µg) diluted in 1 mL of PBS (pH 7.4) for 1 h at room temperature with gentle shaking. […]

For `CC[C@H](C)[C@@H]1NC(=O)[C@@H](NC(=O)[C@H](C)N)CSSC[C@@H](C(=O)NCC(=O)NCC(=O)NCC(=O)N[C@@H](CO)C(=O)O)NC(=O)[C@H](C)NC(=O)[C@H](CCCNC(=N)N)NC(=O)[C@H]([C@@H](C)O)NC(=O)[C@H](CO)NC(=O)[C@H](CO)NC(=O)[C@H](Cc2c[nH]cn2)NC1=O` [CP4, CIHSSTRAC], which hemolysis (Hemolysis assay) is on record?
Its hemolysis is under 0.15%.

What about the “inhibition of the adhesion of rDIII on endothelial cells (immunocytochemistry)” value [1] of the same molecule?
Its value is “able to inhibit the adhesion of rDIII on the endothelial cells”.
